Data from patent US12172957B2, “Attractant composition for the species Delottococcus aberiae, methods for the monitoring, detection and/or control of the pest” (Ecologia y Proteccion Agricola, S.L., priority 2018, dated 2024).
Values joined by “and” are separate entries in the source; they are usually repeats but may differ in a detail not shown here. Equal values may be shown once.

Key:
[1] = Analysis of the attractant content of the septum carriers after 20 days in the field (emission); format: physicochemical
Description: Therefore, the mean emission for those 20 days is 9.45±2.13 μg/day. […] Therefore, the mean emission for those 20 days is 0.55±0.42 μg/day.

[2] = system: male Delottococcus aberiae; assay: Field tests on the attraction response: baited adhesive traps in a citrus plot; format: in vivo
Description: The response in male Delottococcus aberiae to (4,5,5-trimethyl-3-methylenecyclopent-1-en-1-yl)methyl acetate was evaluated in two field tests performed in a citrus var. Marisol plot, located in Sagunto (Valencia), during the months of May-June 2018. In a first test, 3 blocks of 2 devices were installed, said devices being: (A) a device with carrier, without attractant substance and with a trap consisting of a white sheet with adhesive, (B) a device with carrier with bait containing 500 μg of (4,5,5-trimethyl-3-methylenecyclopent-1-en-1-yl)methyl acetate and a trap consisting of a white sheet with adhesive (95×150 mm) (in each block, the devices were located at a distance of 20 m from one another, whereas the distance between blocks was at least 30 m. The carriers loaded with (4,5,5-trimethyl-3-methylenecyclopent-1-en-1-yl)methyl acetate were septum-type carriers and were inserted in the centre of the trap.
The captures obtained in each of the traps were checked each week and the captured individuals were taken to the laboratory to be identified and counted. Traps in the same block were rotated each week.
The number of males captured per trap and day was compared by means of an analysis of variance (ANOVA; LSD test for comparison of the means, P<0.05), subject to transformation (In(x+1)) of the data to homogenise the variance.
In a second test, this was performed in the same way as test 1, but device B included bait containing 100 μg of (4,5,5-trimethyl-3-methylenecyclopent-1-en-1-yl)methyl acetate.

[3] = system: male Delottococcus aberiae; assay: Choice test in glass Petri dish: response of males to the compound vs. pentane control, laboratory conditions; format: in vivo; conditions: 10 μl on 1 cm^2 filter paper vs. pentane negative control; 10 min; χ2 test P<0.05; FIG. 2
Description: The response of male Delottococcus aberiae to (4,5,5-trimethyl-3-methylenecyclopent-1-en-1-yl)methyl acetate was evaluated in the Centro de Ecologia Quimica Agricola (UPV, Valencia) by means of a test on the activity in a glass Petri dish. The tests were performed with light and under the same breeding conditions, at 23±2° C. and 60-70% relative humidity.
For these tests, males from breeding were also used, separated on Petri dishes right when the cottony cocoon begins to form. After pupating and finally emerging from the cocoon, the insects are observed under a binocular scope to confirm their state before being selected for the test.
The method used is described below: for each test, there were placed at opposite ends of the Petri dish a sample of (4,5,5-trimethyl-3-methylenecyclopent-1-en-1-yl)methyl acetate and a negative control (solvent pentane without activity), arranged on 1 cm^2 filter paper in an amount of 10 μl. Immediately, groups of males are carefully deposited on the test plate with the aid of a very fine brush. Therefore, the behaviour of the individuals with respect to the sources of stimulation is recorded for 10 min. Once the test has ended, the insects are discarded, such that each insect is exposed to olfactory stimuli only once. The obtained data were analysed by means of a Chi-squared test (χ2 test, P<0.05).

[4] = first field test, tested load 300 μg per septa

- Final content of the substance after 20 days [1, 4]: 109 µg
- Mean emission for those 20 days [1, 4]: 9.45 ± 2.13 µg/day
- Final content of the substance after 20 days ([1]; second field test, bait 100 μg): 91 µg
- Mean emission for those 20 days ([1]; second field test, bait 100 μg): 0.55 ± 0.42 µg/day
SMILES: C=C1C=C(COC(C)=O)C(C)(C)C1C (racemic) [Pheromone, (4,5,5-trimethyl-3-methylenecyclopent-1-en-1-yl)methyl acetate]
- Male captures per trap and day ([2]; first field test, Table 1, bait 500 μg (300 μg per septa), single traps): 61.0 and 52.7 and 58.0
- Average field captures per trap and day ([2]; first field test, bait 500 μg (300 μg elsewhere in the source), controls 0.11, P<0.001): 57.22
- Attraction power of baited devices vs. traps without attractant ([2]; first field test, septum bait, white adhesive trap, ANOVA, LSD P<0.05, FIG. 3): significantly higher attraction power
- Average field captures per trap and day ([2]; second field test, bait 100 μg, controls 0.06, P<0.036): 9.14
- Response of male Delottococcus aberiae in the test of choice [3]: significant attractant response
